According to US6635641B2 (Agouron Pharmaceuticals, Inc., priority 2000, dated 2003):

How the values were obtained:
Assay type in all cases: biochemical
[1] = target: T1, unphosphorylated VEGF-R2Δ50 (FLVK) (Homo sapiens, UniProt P35968, DEL940-989/E990V); experiment: VEGF-R2 coupled spectrophotometric assay, unphosphorylated construct (FLVK);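 also: Baculovirus-expressed cytosolic kinase domain, ADP formation linked via pyruvate kinase and lactate dehydrogenase to NADH oxidation, read as falling absorbance at 340 nm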
T1 construct: VEGF-R2Δ50 contains residues 806-939 and 990-1171; made in house; host or cells: baculovirus/insect cells
Method: A construct (VEGF-R2Δ50) of the cytosolic domain of human vascular endothelial growth factor receptor 2 (VEGF-R2) lacking the 50 central residues of the 68 residues of the kinase insert domain was expressed in a baculovirus/insect cell system. […] Autophosphorylation of the purified construct was performed by incubation of the enzyme at a concentration of 4 μM in the presence of 3 mM ATP and 40 mM MgCl2 in 100 mM Hepes, pH 7.5, containing 5% glycerol and 5 mM DTT, at 4° C. for 2 h.
The production of ADP from ATP that accompanies phosphoryl transfer was coupled to oxidation of NADH using phosphoenolpyruvate (PEP) and a system having pyruvate kinase (PK) and lactic dehydrogenase (LDH). The oxidation of NADH was monitored by following the decrease of absorbance at 340 nm (e340=6.22 cm^−1 mM^−1) using a Beckman DU 650 spectrophotometer. Assay conditions for phosphorylated VEGF-R2Δ50 (indicated as FLVK-P in the tables below) were the following: 1 mM PEP; 250 μM NADH; 50 units of LDH/mL; 20 units of PK/mL; 5 mM DTT; 5.1 mM poly(E4Y1); 1 mM ATP; and 25 mM MgCl2 in 200 mM Hepes, pH 7.5. Assay conditions for unphosphorylated VEGF-R2Δ50 (indicated as FLVK in the tables) were the following: 1 mM PEP; 250 μM NADH; 50 units of LDH/mL; 20 units of PK/mL; 5 mM DTT; 20 mM poly(E4Y1); 3 mM ATP; and 60 mM MgCl2 and 2 mM MnCl2 in 200 mM Hepes, pH 7.5. Assays were initiated with 5 to 40 nM of enzyme. Ki values were determined by measuring enzyme activity in the presence of varying concentrations of test compounds. The data were analyzed using Enzyme Kinetic and Kaleidagraph software.

CDK2/Cyclin A complex = CDK2/Cyclin A complex (Homo sapiens, UniProt P24941); experiment: CDK2/Cyclin A assay ([32P]ATP incorporation into Rb fragment); conditions: read-out: CDK2 percent inhibition
Method: CDK2 was purified using published methodology (Rosenblatt et al., J. Mol. Biol., 230, 1317-1319 (1993)) from insect cells that had been infected with a baculovirus expression vector. Cyclin A was purified from E. coli cells expressing full-length recombinant cyclin A, and a truncated cyclin A construct was generated by limited proteolysis and purified as described previously (Jeffrey et al., Nature, 376, 313-320 (1995)).
Cyclin-dependent kinase activity was measured by quantifying the enzyme-catalyzed, time-dependent incorporation of radioactive phosphate from [^32P]ATP into a recombinant fragment of the retinoblastoma protein. Unless noted otherwise, assays were performed in 96-well plates in a total volume of 50 μL, in the presence of 10 mM HEPES (N-[2-hydroxyethyl]piperazine-N′-[2-ethanesulfonic acid]) (pH 7.4), 10 mM MgCl2, 25 μM adenosine triphosphate (ATP), 1 mg/mL ovalbumin, 5 μg/mL leupeptin, 1 mM dithiothreitol, 10 mM β-glycerophosphate, 0.1 mM sodium vanadate, 1 mM sodium fluoride, 2.5 mM ethylene glycol-bis(β-aminoethyl ether)-N,N,N′N′-tetraacetic acid (EGTA), 2% (v/v) dimethylsulfoxide, and 0.03-0.2 μCi [^32P]ATP. The substrate (0.3-0.5 μg) was purified recombinant retinoblastoma protein fragment (Rb) (residues 386-928 of the native retinoblastoma protein; 62.3 kDa, containing the majority of the phosphorylation sites found in the native 106-kDa protein, as well as a tag of six histidine residues for ease of purification). Reactions were initiated with CDK2 (150 nM CDK2/Cyclin A complex) or CDK4 (50 nM CDK4/Cyclin D3 complex), incubated at 30° C., and terminated after 20 minutes by the addition of ethylenediaminetetraacetic acid (EDTA) to 250 mM. The phosphorylated substrate was then captured on a nitrocellulose membrane using a 96-well filtration manifold, and unincorporated radioactivity was removed by repeated washing with 0.85% phosphoric acid. Radioactivity was quantified by exposing the dried nitrocellulose membranes to a phosphorimager. Apparent Ki values were measured by assaying enzyme activity in the presence of different compound concentrations and subtracting the background radioactivity measured in the absence of enzyme. The kinetic parameters (kcat, Km for ATP) were measured for each enzyme under the usual assay conditions by determining the dependence of initial rates on ATP concentration. The data were fit to an equation for competitive inhibition using Kaleidagraph (Synergy Software), or were fit to an equation for competitive tight-binding inhibition using the software KineTic (BioKin, Ltd.). Measured Ki values for known inhibitors against CDK4 and CDK2 agreed with published IC50 values. […]

CDK4/Cyclin D3 complex = target: T2, CDK4/Cyclin D3 complex (Homo sapiens, UniProt P11802); experiment: CDK4/Cyclin D assay ([32P]ATP incorporation into Rb fragment); conditions: read-out: CDK4 percent inhibition
T2 construct: made in house; host or cells: insect cells co-infected with baculovirus vectors
Method: A complex of human CDK4 and cyclin D3, or a complex of cyclin D1 and a fusion protein of human CDK4 and glutathione-S-transferase (GST-CDK4), was purified using traditional biochemical chromatographic techniques from insect cells that had been co-infected with the corresponding baculovirus expression vectors.
Cyclin-dependent kinase activity was measured by quantifying the enzyme-catalyzed, time-dependent incorporation of radioactive phosphate from [^32P]ATP into a recombinant fragment of the retinoblastoma protein. Unless noted otherwise, assays were performed in 96-well plates in a total volume of 50 μL, in the presence of 10 mM HEPES (N-[2-hydroxyethyl]piperazine-N′-[2-ethanesulfonic acid]) (pH 7.4), 10 mM MgCl2, 25 μM adenosine triphosphate (ATP), 1 mg/mL ovalbumin, 5 μg/mL leupeptin, 1 mM dithiothreitol, 10 mM β-glycerophosphate, 0.1 mM sodium vanadate, 1 mM sodium fluoride, 2.5 mM ethylene glycol-bis(β-aminoethyl ether)-N,N,N′N′-tetraacetic acid (EGTA), 2% (v/v) dimethylsulfoxide, and 0.03-0.2 μCi [^32P]ATP. The substrate (0.3-0.5 μg) was purified recombinant retinoblastoma protein fragment (Rb) (residues 386-928 of the native retinoblastoma protein; 62.3 kDa, containing the majority of the phosphorylation sites found in the native 106-kDa protein, as well as a tag of six histidine residues for ease of purification). Reactions were initiated with CDK2 (150 nM CDK2/Cyclin A complex) or CDK4 (50 nM CDK4/Cyclin D3 complex), incubated at 30° C., and terminated after 20 minutes by the addition of ethylenediaminetetraacetic acid (EDTA) to 250 mM. The phosphorylated substrate was then captured on a nitrocellulose membrane using a 96-well filtration manifold, and unincorporated radioactivity was removed by repeated washing with 0.85% phosphoric acid. Radioactivity was quantified by exposing the dried nitrocellulose membranes to a phosphorimager. Apparent Ki values were measured by assaying enzyme activity in the presence of different compound concentrations and subtracting the background radioactivity measured in the absence of enzyme. The kinetic parameters (kcat, Km for ATP) were measured for each enzyme under the usual assay conditions by determining the dependence of initial rates on ATP concentration. The data were fit to an equation for competitive inhibition using Kaleidagraph (Synergy Software), or were fit to an equation for competitive tight-binding inhibition using the software KineTic (BioKin, Ltd.). Measured Ki values for known inhibitors against CDK4 and CDK2 agreed with published IC50 values. The specific activity of CDK4 was the same whether complexed to full-length cyclin D3 or the truncated Cyclin D3 construct; both complexes also yielded very similar Ki values for selected inhibitors.

LCK tyrosine kinase = target: T3, LCK tyrosine kinase (Homo sapiens, UniProt P06239, C224D/P223M); experiment: LCK spectrophotometric assay; conditions: for Ki: read-out: LCK-P Ki;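 as to all read-outs here: recombinant LCK kinase activity on poly(E4Y1), ADP formation coupled through PK/LDH to NADH oxidation, followed as absorbance loss at 340 nm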
T3 construct: starting from amino acid residue 223 to the end of the protein at residue 509; made in house; host or cells: insect cells

FL-CHK-1 = target: T4, FL-CHK-1 (Homo sapiens, UniProt O14757); experiment: CHK-1 coupled spectrophotometric assay (Syntide-2); conditions: @ 1 μM; read-out: CHK-1 percent inhibition
T4 construct: C-terminally His-tagged full-length human CHK-1 (FL-CHK-1); made in house; host or cells: baculovirus/insect cells
T4 sequence (O14757 1-476): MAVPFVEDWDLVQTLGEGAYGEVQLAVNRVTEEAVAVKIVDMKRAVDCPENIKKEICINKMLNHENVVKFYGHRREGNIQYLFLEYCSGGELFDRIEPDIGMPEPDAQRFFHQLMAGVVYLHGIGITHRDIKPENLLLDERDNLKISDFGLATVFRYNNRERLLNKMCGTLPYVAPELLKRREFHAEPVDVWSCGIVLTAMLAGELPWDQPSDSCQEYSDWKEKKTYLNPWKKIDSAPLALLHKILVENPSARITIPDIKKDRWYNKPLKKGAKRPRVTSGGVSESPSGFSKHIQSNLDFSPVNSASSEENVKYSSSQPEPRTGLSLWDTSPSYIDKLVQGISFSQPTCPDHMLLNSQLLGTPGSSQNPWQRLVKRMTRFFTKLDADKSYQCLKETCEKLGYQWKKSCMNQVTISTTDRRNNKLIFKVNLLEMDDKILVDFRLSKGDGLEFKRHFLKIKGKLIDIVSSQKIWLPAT
From the text: C-terminally His-tagged full-length human CHK-1 (FL-CHK-1) was expressed using the baculovirus/insect cell system. It contains 6 histidine residues (6×His-tag) at the C-terminus of the 476 amino acid human CHK-1. The protein was purified by conventional chromatographic techniques.
The production of ADP from ATP that accompanies phosphoryl transfer to the synthetic substrate peptide Syntide-2 ([…]) was coupled to oxidation of NADH using phosphoenolpyruvate (PEP) through the actions of pyruvate kinase (PK) and lactic dehydrogenase (LDH). The oxidation of NADH was monitored by following the decrease of absorbance at 340 nm (ε340=6.22 cm−1 mM^−1) using a HP8452 spectrophotometer. Typical reaction solutions contained: […]; 0.15 mM NADH; 28 units of LDH/ml; 16 units of PK/ml; 3 mM DTT; 0.125 mM Syntide-2; 0.15 mM ATP; 25 mM MgCl2 in 50 mM TRIS, pH 7.5; and 400 mM NaCl. Assays were initiated with 10 nM of FL-CHK-1. Ki values were determined by measuring initial enzyme activity in the presence of varying concentrations of test compounds. The data were analyzed using Enzyme Kinetic and Kaleidagraph software.

T1 sequence (P35968 with tags, fused parts or gaps DEL940-989/E990V limits assumed): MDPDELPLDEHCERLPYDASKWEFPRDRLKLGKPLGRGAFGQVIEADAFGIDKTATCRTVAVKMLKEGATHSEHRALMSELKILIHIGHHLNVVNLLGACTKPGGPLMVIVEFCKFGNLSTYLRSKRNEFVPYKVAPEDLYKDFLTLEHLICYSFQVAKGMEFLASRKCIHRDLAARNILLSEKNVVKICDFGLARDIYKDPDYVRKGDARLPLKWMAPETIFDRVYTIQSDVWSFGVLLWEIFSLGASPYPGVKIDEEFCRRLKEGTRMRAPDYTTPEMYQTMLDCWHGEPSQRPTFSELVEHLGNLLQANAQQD
T3 sequence (P06239 223-509 P223M/C224D): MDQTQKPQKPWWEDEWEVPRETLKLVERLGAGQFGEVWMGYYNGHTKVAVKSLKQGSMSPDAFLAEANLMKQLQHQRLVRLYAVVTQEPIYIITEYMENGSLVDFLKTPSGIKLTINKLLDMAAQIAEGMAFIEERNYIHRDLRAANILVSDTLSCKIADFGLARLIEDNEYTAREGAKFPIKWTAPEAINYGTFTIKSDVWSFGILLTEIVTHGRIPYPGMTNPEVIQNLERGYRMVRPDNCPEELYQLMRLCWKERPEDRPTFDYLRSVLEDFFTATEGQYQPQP
T2 sequence (P11802 whole entry, the tested form may be a part): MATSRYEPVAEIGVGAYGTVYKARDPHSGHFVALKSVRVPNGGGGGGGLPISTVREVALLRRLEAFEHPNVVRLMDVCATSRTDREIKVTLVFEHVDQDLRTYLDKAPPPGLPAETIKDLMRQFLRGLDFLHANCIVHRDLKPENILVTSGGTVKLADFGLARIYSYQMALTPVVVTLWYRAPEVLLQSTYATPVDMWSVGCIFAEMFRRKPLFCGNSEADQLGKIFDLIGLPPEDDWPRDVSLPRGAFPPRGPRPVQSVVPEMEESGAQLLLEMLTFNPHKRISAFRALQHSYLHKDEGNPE
T2 sequence (P30281 whole entry partner, the tested form may be a part): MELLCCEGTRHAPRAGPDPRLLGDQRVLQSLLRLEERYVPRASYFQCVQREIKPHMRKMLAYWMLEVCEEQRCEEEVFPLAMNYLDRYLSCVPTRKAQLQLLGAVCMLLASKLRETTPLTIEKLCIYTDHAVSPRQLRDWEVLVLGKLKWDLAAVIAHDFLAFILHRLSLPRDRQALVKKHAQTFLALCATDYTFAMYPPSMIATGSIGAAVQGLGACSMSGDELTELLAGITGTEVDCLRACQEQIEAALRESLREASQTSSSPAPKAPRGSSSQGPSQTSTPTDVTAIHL

Row | SMILES | Ki [1] | inhibition at 100 µM (CDK2/Cyclin A complex; @ 100 μM) | inhibition at 100 µM (CDK4/Cyclin D3 complex; @ 100 μM) | inhibition at 5 µM (LCK tyrosine kinase; @ 5 μM, read-out: LCK-P percent inhibition) | inhibition at 1 µM (CDK4/Cyclin D3 complex) | Ki (LCK tyrosine kinase) | inhibition at 1 µM (FL-CHK-1) | inhibition at 1 µM (CDK2/Cyclin A complex)
1 | Cc1ccc2cc(NC(=O)c3cccc(SCc4cc(Nc5ccccc5)n[nH]4)c3)ccc2n1 [Example E-1, N-(2-methyl-quinolin-6-yl)-3-[{5-(phenylamino)-2-H-pyrazol-3-yl}methylsulfanyl]benzamide] | 1.4 nM | 23% | 40% | 85% |  |  |  | 
2 | O=C(Nc1ccc(N2CCCC2)c(C(F)(F)F)c1)c1cccc(CCc2cc(Nc3cccnc3)n[nH]2)c1 [Example G-11] | 0.11 nM |  |  |  | 16% | 2.5 nM | 7% | 
3 | Cc1cc(NC(=O)c2ccc(F)c(OCc3cncc4ccccc34)c2)ccc1C(C)C [Example K-10, N-(4-Isopropyl-3-methyl-phenyl)-4-fluoro-3-(Isoquinolin-4-yl)methoxy-benzamide] | 0.23 nM |  |  |  | 17% | 57.7 nM | 8% | 12%
4 | CC(=O)Nc1ccc(COc2cccc(C(=O)Nc3ccc4nc(C)ccc4c3)c2)cn1 [Example N-1, 3-(6-Acetylaminopyridin-3-yl)methoxy-N-(2-methyl-quinolin-6-yl)-benzamide] | 1.3 nM |  |  |  | 19% | 160 nM | 10% | 18%
